Results taken from patent US20150359668A1, “LIGHT DELIVERY DEVICE AND RELATED COMPOSITIONS, METHODS AND SYSTEMS” (CALIFORNIA INSTITUTE OF TECHNOLOGY, priority 2011, published 2015).
Several values for one entry are separate records, joined by “and”; a condition that tells them apart may be missing. Equal values may be shown once. Read-outs that look alike come from different tables or passages of the source.

Experiments:
[1] = reaction with singlet oxygen; cited from earlier work
[2] = physiological pH; cited from earlier work
sclera [3] = assay: drug diffusion into the sclera of intact eyes (extraction assay, diffusion model fit); conditions: for diffusivity, D / partition coefficient, k: from DPBS
Source text: Orbital tissues were removed with scissors to expose the sclera. […] After the contact time, the eye was removed from the drug solution, and excess solution on the sclera was dabbed away with a Kimwipe. The eye was dissected using a scalpel blade and a pair of scissors to obtain a posterior scleral section on the temporal side near the optic nerve. The tissue section was placed onto a trephine punch to cut out a 9.5-mm diameter cross-section.
(§1) Quantitative assay of the amount of drug delivered—Experiments were performed for five drug contact times (four samples each): for the cornea, tc,cornea=0.25, 0.5, 1, 2, and 4 hrs, and for the sclera, tc,sclera=0.5, 2, 4, 7.5, and 120 hrs. Each experiment was repeated four times. For each experiment, the 9.5-mm diameter tissue cross-section obtained as described above was placed into a 50 mL centrifuge tube and immersed in 50 mL of extractant (doubled-distilled water for cornea or DPBS for sclera) then placed on a rocker to extract the drug molecules (FIG. 40). […] After a first extraction time te,1 of 8 hours, the tissue specimen was then transferred into another 50 mL of fresh extractant and the extract was retained for analysis.
(§2) The concentration of the drug in the extract was determined using fluorimetry. […] The fluorescence of each extract was measured and concentration was determined based on calibration curves prepared for each compound using a series of solutions with known concentrations. The extraction process was repeated using successively longer extraction times until there was no detectable fluorescence in the supernatant.
(§3) Porcine eyes closely resemble a sphere with diameter ˜25 mm. The cornea and sclera are the targeted tissues and both have thicknesses that are on the order of 1 mm. Since these tissue thicknesses are less than a tenth of the diameter of the eye, they are modeled as semi-infinite slabs. Each tissue is approximated as a uniform material. Fick's diffusion equation is given by
(§4) where C(z,t) is the drug concentration inside the tissue, t is the time since the exterior surface of the tissue was placed in contact with the drug solution, z is the distance into the tissue from its exterior surface, and D is the diffusion coefficient. […] For short contact times, the concentration falls to zero before the profile reaches the endothelium. For longer contact times, the boundary condition that the concentration falls to zero far into the system is still used as a first approximation (neglecting the change in material properties at the endothelium and neglects different transport processes in the aqueous or vitreous).
(§5) where area represents the cross-sectional area of the tissue sample and L is the thickness of the tissue sample. At long drug contact time, the predicted concentration changes very slowly and approaches a value governed by the partition coefficient.
(§6) with i being the individual data point and N being the total data points used for the fit. Data fitting was performed by writing a program in MATLAB software.

guinea pig eyes = assay: guinea pig form-deprivation myopia and normal ocular growth after subconjunctival treatment; conditions: Set A, eyes enucleated immediately after treatment
cornea [4] = assay: model of photodynamic collagen cross-linking profile in the cornea
Source text: Design of experiments—The collagen gel photorheological technique discussed in Examples 29-31 was used to gather collagen cross-linking rate data in order to model the extent and distribution of cross-link formation in the tissue. Collagen gel samples have uniform drug concentration profiles based on the preparation technique developed Examples 29-31. The protocols for collagen gel preparation and photorheological measurement are described in the Methods Section of Example 29-31. The pairs of drug concentrations and collagen gel thicknesses were selected such that the intensity profile is approximately uniform throughout the sample. Based on light intensity calculations, this is achieved when the ratio of light penetration depth over sample thickness is 1.2. The light intensity profile in the sample is given by:
Design of the model—Photodynamic collagen cross-linking depends on both the local photosensitizer concentration and the light intensity which are functions of treatment parameters: drug concentration, contact time (duration the drug is in contact with the tissue), delay time (period between end of contact time and beginning of irradiation), and irradiation time (FIGS. 46A-46C). […] The concentration profile can be calculated using Fick's diffusion equation. The light intensity also varies along the tissue as determined by Beer's law. […]

cornea [5] = assay: drug diffusion into the cornea of intact eyes (extraction assay, diffusion model fit); conditions: for diffusivity, D / partition coefficient, k: from DPBS
Procedure: Siena for Medical Science supplied porcine eyes from 3-4 month old swine. Eyes were stored in ocular balanced saline solution on ice until use within 48 hours post mortem. […] The epithelial cell layer was removed by scraping with a scalpel. […] The drug solution containing the eye was gently agitated using a rocker for a specified “drug contact time” (tc,cornea ranging from 0 to 4 hours). After the drug contact time, the eye was removed from the drug solution, and excess solution on the cornea was dabbed away with a Kimwipe. The eye was dissected using a scalpel blade and a pair of scissors to cut around the corneoscleral limbus to separate out the cornea. The tissue section was placed onto a trephine punch to cut out a 9.5-mm diameter corneal cross-section.
as §1, §2, §3, §4, §5, §6

collagen gel = collagen gel photorheology: storage modulus during photo-activated cross-linking; conditions: for cross-linking rate as % of the rate without singlet oxygen quenchers: in air; for modulus change during the last 10 minutes, no irradiation / ΔG′ over the 30-minute period without irradiation: 0.02% eosin Y or 0.1% riboflavin, 0 mW/cm^2; for modulus change during the 10 minutes after cessation of irradiation / change of storage modulus ΔG′ over the 30-minute irradiation: 0.02% eosin Y, 0.1% riboflavin; for modulus change during the 10 minutes after cessation of irradiation: 6 mW/cm^2, 3 mW/cm^2; for change of storage modulus ΔG′ over the 30-minute irradiation: 6 mW/cm^2 at 530±15 nm, 3 mW/cm^2 at 370±12 nm
cell viability = conditions: cited from earlier work
cornea [6] = conditions: fluorescein value used for riboflavin in earlier studies; cited from earlier work
sclera [7] = conditions: subconjunctival delivery; cited from earlier work
posterior globe = conditions: rabbit, in vivo; cited from earlier work
keratocytes = conditions: human, in vivo; cited from earlier work
cornea [8] = conditions: sodium azide added to the riboflavin treatment solution; cited from earlier work
sclera [9] = conditions: cited from earlier work
[10] = in the absence of oxygen (in argon), 30-minute irradiation
[11] = in the presence of oxygen (in air), 30-minute irradiation, 0.05% riboflavin 370 nm or 0.02% eosin Y 530 nm

N[C@@H](CS)C(=O)O [Cystei e, Cysteine]
k1O2 × 10^−7 M^−1s^−1 [1]: 0.89 × 10^−7 M^−1s^−1

O=C([O-])c1ccccc1-c1c2cc(Br)c(=O)c(Br)c-2oc2c(Br)c([O-])c(Br)cc12.[Na+].[Na+] [Eosin Y, eosin Y]
ionization in solution [2]: negatively ionized | permeability (sclera [3]; sclera): 0.099 μm/s | time for the concentration to level off (sclera [3]; sclera): approximately 30 hours | drug in second extract, % of the first extract (sclera [3]; sclera, 2 hours contact time): approximately 20% | diffusivity, D (sclera [3]; sclera): 6.2 ± 1.7 μm^2/s and 6.2 μm^2/s | partition coefficient, k (sclera [3]; sclera): 13.0±1.1 and 13.0 | diffusivity, D (sclera [3]; sclera, listed as eosin Y): 6.2 μm^2/s | partition coefficient, k (sclera [3]; sclera, listed as eosin Y): 13 | diffusion coefficient without the binding effect, Dab (sclera [3]; sclera, Dab=kD): 81 μm^2/s | distribution in the sclera after subconjunctival injection (guinea pig eyes): pink staining from Eosin Y over the entire sclera | characteristic time to penetrate the entire cornea, L^2/(4*D) (cornea [4]): ~15 min | drug contact time at which delivered amount levels off (cornea [5]; cornea): 2 h | diffusivity, D (cornea [5]; cornea): 62 μm^2/s and 62 ± 22 μm^2/s | partition coefficient, k (cornea [5]; cornea): 4.3±0.7 and 4.3 | diffusivity, D (cornea [5]; cornea, listed as eosin Y): 62 μm^2/s | partition coefficient, k (cornea [5]; cornea, listed as eosin Y): 4.3 | diffusion coefficient without the binding effect, Dab (cornea [5]; cornea, Dab=kD): 267 μm^2/s | calculated permeability (cornea [5]; through porcine cornea): 0.31 μm/s | cross-linking rate as % of the rate without singlet oxygen quenchers (collagen gel; 10 mM ascorbic acid): 43±23% | modulus change during the last 10 minutes, no irradiation (collagen gel): 59±34 Pa | ΔG′ over the 30-minute period without irradiation (collagen gel): −23±76 Pa | modulus change during the 10 minutes after cessation of irradiation (collagen gel): 61±136 Pa | change of storage modulus ΔG′ over the 30-minute irradiation (collagen gel): 793±118 Pa | cross-linking rate as % of the rate without singlet oxygen quenchers (collagen gel; 20 mM ascorbic acid): 23±10% | cross-linking rate as % of the rate without singlet oxygen quenchers (collagen gel; 100 mM ascorbic acid): −7±6% | cross-linking rate as % of the rate without singlet oxygen quenchers (collagen gel; 100 mM sodium azide): 34±8% | cross-linking rate in the absence of oxygen (reduced to) (collagen gel; argon vs air): 12% | rate of change in storage modulus, Ġ′ (increased by) (collagen gel; [10]): 3.4±2.3 Pa/min | rate of change in storage modulus, Ġ′ (increased by) (collagen gel; [11]): 28.4±5.1 Pa/min | concentration with excellent cell viability (up to) (cell viability): up to 20 mM

N[C@@H](Cc1c[nH]cn1)C(=O)O [Histidine]
k1O2 × 10^−7 M^−1s^−1 [1]: 3.2-3.4 × 10^−7 M^−1s^−1

CSCC[C@H](N)C(=O)O [Methionine]
k1O2 × 10^−7 M^−1s^−1 [1]: 1.6 × 10^−7 M^−1s^−1

N[C@@H](Cc1c[nH]c2ccccc12)C(=O)O [Tryptophan]
k1O2 × 10^−7 M^−1s^−1 [1]: 1.3-3 × 10^−7 M^−1s^−1

N[C@@H](Cc1ccc(O)cc1)C(=O)O [Tyrosine]
k1O2 × 10^−7 M^−1s^−1 [1]: 0.8 × 10^−7 M^−1s^−1

O=C1OC2(c3ccc(O)cc3Oc3cc(O)ccc32)c2ccccc21 [fluorescein]
diffusion coefficient, D (cornea [6]): 65 μm^2/s

CO[C@@]12[C@H](COC(N)=O)C3=C(C(=O)C(C)=C(N)C3=O)N1C[C@@H]1N[C@@H]12 [mitomycin-C]
fraction of drug present on the surface of sponges able to diffuse into the sclera (sclera [7]): ~5%

riboflavin-5′-monophosphate [reference compound]
side-effects in the posterior globe (posterior globe): almost complete loss of the photoreceptors, the outer nuclear layer and the retinal pigment epithelium (RPE) | ionization in solution [2]: negatively ionized | diffusion coefficient without the binding effect, Dab (sclera [3]): 41 μm^2/s | drug in 3rd extract relative to the first extract (sclera [3]): 1-3% | drug in 4th extract relative to the first extract (sclera [3]): ≤ 1% | drug in second extract, % of the first extract (sclera [3]): 3-6% | time for the concentration to level off (sclera [3]): approximately 7.5 hours | anterior stromal depth in which almost all keratocytes undergo apoptosis (keratocytes): 300-350 μm | time to full recovery of the keratocyte population (keratocytes): 6-12 months | diffusion coefficient without the binding effect, Dab (cornea [5]): 134 μm^2/s | drug contact time at which delivered amount levels off (cornea [5]): 2 h | drug in second extract, % of the first extract (cornea [5]): 1.6-2.5% | cross-linking rate as % of the rate without singlet oxygen quenchers (collagen gel; 10 mM sodium azide): 12±20% | modulus change during the last 10 minutes, no irradiation (collagen gel): 32±36 Pa | ΔG′ over the 30-minute period without irradiation (collagen gel): 72±136 Pa | modulus change during the 10 minutes after cessation of irradiation (collagen gel): 70±19 Pa | change of storage modulus ΔG′ over the 30-minute irradiation (collagen gel): 819±85 Pa | cross-linking rate as % of the rate without singlet oxygen quenchers (collagen gel; 20 mM ascorbic acid): −32±11% | cross-linking rate as % of the rate without singlet oxygen quenchers (collagen gel; 100 mM sodium azide): −26±23% | cross-linking rate as % of the optimal rate (0.05% riboflavin) (collagen gel; 0.12% riboflavin concentration, by interpolation): approximately 78% | cross-linking in the absence of oxygen (collagen gel; in argon): no cross-linking occurred | rate of change in storage modulus, Ġ′ (decreased by) (collagen gel; [10]): 4.8±2.3 Pa/min | rate of change in storage modulus, Ġ′ (increased by) (collagen gel; [11]): 28.0±4.7 Pa/min | decrease of cross-linking efficacy (destructive tension of corneal strips) (cornea [8]): 76%

sulforhodamine
partition coefficient in the sclera (sclera [9]): 13.6
